{"source": "patent US10138254B2", "about": "“Bicyclic compounds as pest control agents” (BAYER CROPSCIENCE AKTIENGESELLSCHAFT, priority 2014, dated 2018)", "key": {"[1]": {"assay": "log P by HPLC on reversed-phase (C18) columns, OECD Guideline 117", "type": "physicochemical", "details": "reversed-phase (C18) HPLC column", "protocol": "The log P values were determined in accordance with OECD Guideline 117 (EC Directive 92/69/EEC) by HPLC (high-performance liquid chromatography) using reversed-phase (RP) columns (C18), by the following methods: [a] The LC-MS determination in the acidic range is carried out at pH 2.7 with 0.1% aqueous formic acid and acetonitrile (contains 0.1% formic acid) as eluents; linear gradient from 10% acetonitrile to 95% acetonitrile. [b] LC-MS determination in the neutral range is effected at pH 7.8 with 0.001 molar aqueous ammonium hydrogencarbonate solution and acetonitrile as eluents; linear gradient from 10% acetonitrile to 95% acetonitrile. Calibration is carried out using unbranched alkan-2-ones (having 3 to 16 carbon atoms) with known log P values (log P values determined on the basis of the retention times by linear interpolation between two successive alkanones)."}, "[2]": {"tested_on": "larvae of the mustard beetle (Phaedon cochleariae)", "assay": "Phaedon cochleariae spray test (Chinese cabbage leaf discs)", "type": "in vivo", "details": "application rate 500 g/ha, after 7 days, 100% = all beetle larvae killed", "protocol": "Phaedon cochleariae—Spray Test\nSolvent: 78.0 parts by weight of acetone • • 1.5 parts by weight of dimethylformamide\nEmulsifier: alkylaryl polyglycol ether\nTo produce a suitable active ingredient formulation, 1 part by weight of active ingredient is dissolved with the specified parts by weight of solvent and made up with water containing an emulsifier concentration of 1000 ppm until the desired concentration is attained. To produce further test concentrations, the formulation is diluted with emulsifier-containing water.\nAfter 7 days, the efficacy in % is determined. 100% means that all the beetle larvae have been killed; 0% means that no beetle larvae have been killed."}, "[3]": {"tested_on": "green peach aphid (Myzus persicae)", "assay": "Myzus persicae spray test (Chinese cabbage leaf discs)", "type": "in vivo", "details": "Myzus persicae, foliar, 144 h, application rate 500 g/ha, after 6 days, 100% = all aphids killed, read-out: efficacy", "protocol": "Myzus persicae—Spray Test Solvent: 78 parts by weight of acetone • • 1.5 parts by weight of dimethylformamide Emulsifier: alkylaryl polyglycol ether To produce a suitable active ingredient formulation, 1 part by weight of active ingredient is dissolved with the specified parts by weight of solvent and made up with water containing an emulsifier concentration of 1000 ppm until the desired concentration is attained. To produce further test concentrations, the formulation is diluted with emulsifier-containing water. Discs of Chinese cabbage leaves (Brassica pekinensis) infested by all stages of the green peach aphid (Myzus persicae) are sprayed with an active ingredient formulation of the desired concentration. After 6 days, the efficacy in % is determined. 100% means that all the aphids have been killed; 0% means that no aphids have been killed."}, "[4]": {"tested_on": "green peach aphid (Myzus persicae)", "assay": "Myzus persicae spray test (bell pepper plants)", "type": "in vivo", "details": "application rate 4 ppm, after 6 days, 100% = all aphids killed", "protocol": "Myzus persicae—Spray Test Solvent: 7 parts by weight of dimethylformamide Emulsifier: alkylaryl polyglycol ether To produce a suitable active ingredient formulation, 1 part by weight of active ingredient is dissolved with the specified parts by weight of solvent and made up with water containing an emulsifier concentration of 1000 ppm until the desired concentration is attained. To produce further test concentrations, the formulation is diluted with emulsifier-containing water. If the addition of ammonium salts or/and penetrants is required, these are each added in a concentration of 1000 ppm to the formulation solution. Bell pepper plants (Capsicum annuum) severely infested with the green peach aphid (Myzus persicae) are treated by spraying with the active ingredient formulation in the desired concentration. After 6 days, the kill in % is determined. 100% means that all of the aphids have been killed; 0% means that none of the aphids have been killed."}, "[5]": {"details": "acidic range, pH 2.7, 0.1% aqueous formic acid and acetonitrile, read-out: LogP[a]"}, "[6]": {"details": "neutral range, pH 7.8, 0.001 molar aqueous ammonium hydrogencarbonate and acetonitrile, read-out: logP[b]"}}, "note": "Read-outs that look alike come from different tables or passages of the source."}
{"smiles": "Cn1c(=O)cnn(-c2cnc3nc(-c4cccnc4)sc3c2)c1=O", "note": "[Example 39, 4-Methyl-2-[2-(pyridin-3-yl)[1,3]thiazolo[4,5-b]pyridin-6-yl]-1,2,4-triazine-3,5(2H,4H)-dione]", "values": [{"measurement": "chromatographic logP", "setting": "[1]; [5]", "result": 1.29}, {"measurement": "chromatographic logP", "setting": "[1]; [6]", "result": 1.36}, {"measurement": "efficacy", "setting": "[2]", "result": 83, "unit": "%"}, {"measurement": "pest or weed control at 500 g/ha", "setting": "[3]", "result": 90, "unit": "%"}]}
{"smiles": "Cc1cc(C)c([S+]([O-])CC(F)(F)F)cc1-c1cnc2nc(-c3ccc[n+]([O-])c3)sc2c1", "note": "(stereo not shown) [Example 21]", "values": [{"measurement": "chromatographic logP", "setting": "[1]; [5]", "result": 1.91}, {"measurement": "chromatographic logP", "setting": "[1]; [6]", "result": 1.86}, {"measurement": "efficacy (kill)", "setting": "[4]", "result": 100, "unit": "%"}]}
